Test results from paper PMC12856317, “A reversible feedback mechanism regulating mitochondrial heme synthesis” (The Journal of Biological Chemistry, 2025).

Key:
[1] = target: T1, WT human ALAS2 (residues 54–587) (Homo sapiens, UniProt P22557); test: Isothermal titration calorimetry, hemin-protein interaction; format: binding; settings: ITC, 25 °C
T1 construct: His6-SUMO (N, cleaved yes); made in house; host or cells: Escherichia coli BL21-Codon Plus (DE3)-RIL
T1 sequence (P22557 54-587): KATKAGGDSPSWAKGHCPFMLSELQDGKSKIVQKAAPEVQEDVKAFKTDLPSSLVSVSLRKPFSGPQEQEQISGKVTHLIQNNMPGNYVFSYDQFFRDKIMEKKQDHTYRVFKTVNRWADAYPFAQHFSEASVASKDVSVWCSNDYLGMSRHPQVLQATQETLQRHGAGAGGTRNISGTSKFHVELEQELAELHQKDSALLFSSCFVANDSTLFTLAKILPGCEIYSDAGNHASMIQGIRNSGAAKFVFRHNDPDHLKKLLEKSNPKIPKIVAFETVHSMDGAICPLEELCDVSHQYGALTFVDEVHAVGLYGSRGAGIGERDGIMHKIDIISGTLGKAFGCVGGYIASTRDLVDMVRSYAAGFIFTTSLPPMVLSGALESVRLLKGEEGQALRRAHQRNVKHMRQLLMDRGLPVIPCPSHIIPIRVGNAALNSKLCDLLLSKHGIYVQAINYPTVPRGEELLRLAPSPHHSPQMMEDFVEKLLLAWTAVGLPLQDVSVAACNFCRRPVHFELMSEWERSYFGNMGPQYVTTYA
Experimental: (§1) Binding curves of the hemin-protein interaction were determined using Nano-ITC instrument (TA instruments) at 25 °C. Hemin was dissolved in 1 M NaOH and autoclaved to prepare a stock solution of 746 μM, ε385nm = 58,440 M^−1 cm^−1. The stock solution was diluted to 1.5 μM in titration buffer containing 25 mM Hepes, pH 7, 150 mM KCl, and 0.5 mM TCEP. Protein samples were dialyzed into the titration buffer and diluted to a final concentration of 40 μM. Fixed volumes of protein were injected at 200-s intervals into the cell containing hemin. An A + B hetero-association model was used to determine the thermodynamic parameters for each variant. Data were integrated and analyzed using NITPIC and SEDPHAT and visualized using GUSSI ([71], [72], [73]).

[2] = target: T2, human ALAS2 ΔC (residues 54–547) (Homo sapiens, UniProt P22557); test: as above; format: binding; settings: ITC, 25 °C
T2 construct: a truncation without the C-terminal CXXC motif (ΔC, residues 54–547); His6-SUMO (N, cleaved yes); made in house; host or cells: Escherichia coli BL21-Codon Plus (DE3)-RIL
T2 sequence (P22557 54-547): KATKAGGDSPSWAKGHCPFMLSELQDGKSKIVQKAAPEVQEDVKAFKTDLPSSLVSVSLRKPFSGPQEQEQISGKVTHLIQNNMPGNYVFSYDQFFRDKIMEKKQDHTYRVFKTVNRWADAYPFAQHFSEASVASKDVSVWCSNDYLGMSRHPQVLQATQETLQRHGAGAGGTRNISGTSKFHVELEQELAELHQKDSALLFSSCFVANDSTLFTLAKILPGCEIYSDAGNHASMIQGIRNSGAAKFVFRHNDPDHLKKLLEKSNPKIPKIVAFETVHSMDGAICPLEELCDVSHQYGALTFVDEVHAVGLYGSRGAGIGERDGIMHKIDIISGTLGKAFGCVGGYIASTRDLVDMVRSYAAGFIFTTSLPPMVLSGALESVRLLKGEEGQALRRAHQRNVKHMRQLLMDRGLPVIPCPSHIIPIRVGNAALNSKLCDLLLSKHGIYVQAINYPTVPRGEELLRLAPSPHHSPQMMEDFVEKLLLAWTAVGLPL
Experimental: as §1

[3] = 95% confidence interval in brackets

Substance: ferric chloride heme [hemin]
- ΔG [1]: -9.05 kcal/mol
- ΔS [1]: −1.25 kcal/mol K
- Kd [1, 3]: 232 nM
- ΔH [1, 3]: −382 [−440, −342] kcal/mol
- Kd ([1]; 95% confidence interval in brackets, listed as heme): ~230 nM
- ΔG [2]: -8.94 kcal/mol
- ΔS [2]: −1.80 kcal/mol K
- Kd [2, 3]: 279 nM
- ΔH [2, 3]: −544 [−604, −499] kcal/mol
